US9284291B2, “Kappa opioid receptor compounds” (MediSynergies, LLC, priority 2014, dated 2016)

How the values were obtained:
Assay type in all cases: binding
Mu opioid receptor = Mu opioid receptor (Homo sapiens, UniProt P35372); experiment: Opioid receptor affinity, NIMH PDSP screen, Mu subtype
Method: (§1) The compound of Example 7 was tested for activity vs. opioid receptor subtypes, at an initial concentration of 10 μM, through the NIMH Psychoactive Drug Screening Program (PDSP), operated by Dr. Bryan Roth and his colleagues in the Department of Pharmacology at the University of North Carolina (Chapel Hill, N.C.) through an agreement with the National Institute of Mental Health (NIMH).

Kappa opioid receptor = Kappa opioid receptor (Homo sapiens, UniProt P41145); experiment: Opioid receptor affinity, NIMH PDSP screen, Kappa subtype
Method: as §1

Delta opioid receptor = Delta opioid receptor (Homo sapiens, UniProt P41143); experiment: Opioid receptor affinity, NIMH PDSP screen, Delta subtype
Method: as §1

Kappa opioid receptor, sequence (P41145 whole entry): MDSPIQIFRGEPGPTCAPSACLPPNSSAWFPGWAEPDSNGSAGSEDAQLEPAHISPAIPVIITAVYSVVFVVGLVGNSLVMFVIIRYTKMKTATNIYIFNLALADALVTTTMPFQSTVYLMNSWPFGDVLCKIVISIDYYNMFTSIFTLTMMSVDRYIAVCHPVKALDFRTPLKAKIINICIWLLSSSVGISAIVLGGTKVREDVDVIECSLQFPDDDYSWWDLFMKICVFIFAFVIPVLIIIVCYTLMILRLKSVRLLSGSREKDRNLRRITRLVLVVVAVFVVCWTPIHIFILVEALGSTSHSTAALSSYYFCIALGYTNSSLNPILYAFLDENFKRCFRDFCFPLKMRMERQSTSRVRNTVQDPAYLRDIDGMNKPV
Delta opioid receptor, sequence (P41143 whole entry): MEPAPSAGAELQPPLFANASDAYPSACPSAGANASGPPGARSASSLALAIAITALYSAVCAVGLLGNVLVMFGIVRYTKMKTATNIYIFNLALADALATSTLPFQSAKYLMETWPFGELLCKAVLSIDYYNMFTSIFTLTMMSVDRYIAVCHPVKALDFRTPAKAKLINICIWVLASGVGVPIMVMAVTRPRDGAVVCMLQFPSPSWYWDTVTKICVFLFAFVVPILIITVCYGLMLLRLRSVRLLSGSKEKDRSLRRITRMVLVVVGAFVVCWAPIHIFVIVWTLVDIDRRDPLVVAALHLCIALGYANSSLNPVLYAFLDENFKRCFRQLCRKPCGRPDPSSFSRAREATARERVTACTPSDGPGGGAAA
Mu opioid receptor, sequence (P35372 whole entry, species assumed): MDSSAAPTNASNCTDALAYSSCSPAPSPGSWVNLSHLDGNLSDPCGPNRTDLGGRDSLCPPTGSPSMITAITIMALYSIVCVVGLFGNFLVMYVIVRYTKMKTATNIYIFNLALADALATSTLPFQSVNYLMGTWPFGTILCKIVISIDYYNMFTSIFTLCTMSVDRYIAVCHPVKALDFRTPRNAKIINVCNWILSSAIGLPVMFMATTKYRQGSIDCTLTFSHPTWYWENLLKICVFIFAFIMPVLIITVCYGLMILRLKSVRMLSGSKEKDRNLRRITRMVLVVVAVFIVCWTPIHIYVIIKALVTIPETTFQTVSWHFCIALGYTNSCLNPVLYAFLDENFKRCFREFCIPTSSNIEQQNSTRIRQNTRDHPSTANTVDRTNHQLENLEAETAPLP

inhibition at 10 µM (Mu opioid receptor): 39.1%
Ki (Kappa opioid receptor): 47 nM
inhibition at 10 µM (Kappa opioid receptor; 10 μM): 100%
inhibition at 10 µM (Delta opioid receptor): 23.5%
Compound: CN(C)CCCC1(c2ccc(F)cc2)OCc2cc(-c3ncc[nH]3)ccc21 (stereo not shown) [Example 7]
